From patent US6410591B1, “3,7 or 3 and 7 thia or oxa prostanoic acid derivatives as agents for lowering intraocular pressure” (Allergan Sales, Inc., priority 2001, dated 2002)

Assays:
intraocular pressure [1] = assay: Intraocular pressure in dogs, applanation pneumatonometry; assay type: in vivo; details: for reduced the intraocular pressure (IOP) by: 25 μl to the ocular surface, IOP at 6 hours
Method: The compounds were prepared at the said concentrations in a vehicle comprising 0.1% polysorbate 80 and 10 mM TRIS base. Dogs were treated by administering 25 μl to the ocular surface, the contralateral eye received vehicle as a control. Intraocular pressure was measured by applanation pneumatonometry. Dog intraocular pressure was measured immediately before drug administration and at 6 hours thereafter.

intraocular pressure [2] = assay: Intraocular pressure in glaucomatous cynomolgus monkeys; assay type: in vivo, glaucomatous cynomonlgus monkey

CCCCC[C@H](O)/C=C/[C@H]1[C@H](O)CC(=O)[C@@H]1SCCCSCC(=O)O [Compound 9, {3-[(1R,2S,3R)-3-Hydroxy-2-((S)-(E)-3-hydroxyoct-1-enyl)-5-oxocyclopentyl-sulfanyl]propylsulfanyl}acetic acid]
reduced the intraocular pressure (IOP) by (intraocular pressure [1]; dose of 0.01% w/v): 45% | reduced the intraocular pressure (IOP) by (intraocular pressure [1]; dose of 0.1% w/v): 50% | ocular hypotensive effect (intraocular pressure [1]; topical ocular, 25 μl): pronounced ocular hypotensive effect

CCCCC[C@H](O)/C=C/[C@H]1[C@H](O)CC(=O)[C@@H]1SCCCSCC(=O)OC(C)C [Compound 10, {3-[(1R,2S,3R)-3-Hydroxy-2-((S)-(E)-3-hydroxyoct-1-enyl)-5-oxocyclopentyl-sulfanyl]propylsulfanyl}acetic acid isopropyl ester]
effect on IOP (intraocular pressure [2]; glaucomatous cynomonlgus monkey, dose of 0.01% w/v): reduced the IOP | ocular hypotensive effect (intraocular pressure [2]; glaucomatous cynomonlgus monkeys): pronounced ocular hypotensive effect
